Test results published in patent publication US20120115742A1, “METHODS FOR IDENTIFICATION” (Cambridge Enterprise Limited, priority 2009, published 2012).

Columns and labels:
fetal rat pituicytes = assay: Rat pituicyte GH suppression assay; assay type: cell-based; conditions: Table 3; suppression compared to vehicle
Text: (§1) Two different assays for “classical” sstr2 functions were adopted: (1) cultured foetal rat pituitary cells secreted growth hormone which is inhibited by sstr2 agonists in a dose-dependent fashion and (2) selected glucose-sensitive sub-clones of the human Panc-1 cell line secrete insulin which is inhibited by sstr2 agonists in a dose-dependent fashion.
Methods: Cultures of fetal rat pituicytes were established exactly as previously described (Murray et al. (2004) J. Clin. Endocrinol. Metab. 89:3027-32) by enzymatic dispersion. After 48 hrs in low glucose DMEM plus 10% FCS, cells in 48 well plates (5×10^4 cells per well) were washed for 4 hrs in serum-free DMEM and then incubated with test agents at various concentrations for a further 24 hrs in serum-free DMEM. At the end of this period, the conditioned medium was harvested, any cell debris removed by centrifugation and assayed for […] using a commercially available ELISA (Linco; cat# EZRMGH-45K) in accordance with the manufacturer's instructions.
(§2) Results were reported as the mean SD, expressed as the fold change from cells in the presence of vehicle only.

Panc-2H4 cells = assay: Human Panc-2H4 insulin suppression assay; assay type: cell-based
Text: as §1
Glucose-sensitive sub-clones of the human Panc-1, a cell line derived from a pleiomorphic epithelioid carcinoma of the exocrine pancreas, were obtained essentially as described by Hamil et al. (2008) Biomed. Sci. Instrum. 44:441-6. Briefly, Panc-1 cells were subcultured in 24 well plates, and the medium was supplemented with an additional 5% glucose. […] The resulting sub-lines were then tested for glucose sensitivity by preparing wells of a 96-well plate (5×10^4 cells per well) which were then exposed to cultured medium containing a range of glucose concentrations (low glucose DMEM, DMEM, DMEM+1% glucose, DMEM+2.5% glucose and DMEM+5% glucose). After 24 hrs incubation, the conditioned medium was collected and assayed for insulin secretion by ELISA (Linco; cat# EZHI-14K) in accordance with the manufacturer's instructions. […] Further 96 well plates were prepared using Panc-2H4 (5×10^4 cells per well) in DMEM. After 24 hrs, the medium was switched to DMEM+5% glucose containing various test agents at various concentrations (triplicate wells per condition). After a further 24 hrs, the conditioned medium was harvested and the concentration of insulin was determined by ELISA as described above.
as §2

[1] = system: rat peripheral blood leukocytes; assay: Rat chemokine-induced PBMC migration assay; assay type: cell-based
Protocol: Similarly, where human Panc-2H4 cells are used to determine the effect of agents on classical sstr2 targets, the result is compared with the effect of the same agents on chemokine-induced migration of human THP-1 cells. […] For this reason, the ratio of “classical” to “BSCI” activity in Table 3 is calculated separately for rat and human.

Jurkat-D3B cells = assay: SDF-1α induced migration of Jurkat-D3B cells expressing sstr2; assay type: cell-based, human
Protocol: Methods: Total mRNA was prepared from Panc-1 cells (a human pancreas cell line which is well known to express high levels of sstr2) using the RNAqueous 4PCR kit (Ambion, Cat code #1914) in accordance with the manufacturer's instructions. The mRNA was then reverse transcribed (using the RETROscript kit; Ambio) to yield a cDNA preparation. A full length cDNA of the sstr2 gene was then obtained by PCR (using a Peltier PTC-200 thermal cycler using the following cycle times and conditions: 94° C. for 2 min, followed by 30 cycles of 94° C., for 30 sec, 55° C. for 30 sec, 72° C. for 1 min and finally 72° C. for 10 min), and isolated by preparative gel electrophoresis. The sequence of the sstr2 cDNA was confirmed by sequencing. The sstr2 cDNA was treated with EcoRI and Xhol to generate sticky ends, which allowed directional cloning into the polylinker of the plasmid pcDNA3.1+ (Invitrogen) followed by ligation ([…] ligation reactions were run with 400 T4 DNA ligase (New England Biolabs) and the maximal amounts of DNA with an insert:plasmid ratio of 3:1 in ligase buffer incubated overnight at 13° C.). […]
A number of individual cell lines were obtained in this way, which expressed significant levels of sstr2 on the cell surface, detected by flow cytometry using the human-sstr2 antibody (Sigma, 50694; see Example 3 for details of the flow cytometry protocol used). […]

TNF-alpha = assay: Sub-lethal endotoxemia model, serum TNF-alpha after LPS; assay type: in vivo, mouse
Protocol: We selected the sub-lethal endotoxemia model in mouse, because this has been well characterised in our laboratory (see for example Fox et al. (2002) J. Med. Chem. 45:360-70; Fox et al. (2005) J. Med. Chem. 48:867-74). The extent of systemic inflammation in response to a single intraperitoneal injection of bacterial lipopolysaccharide (LPS) can be estimated by measuring serum TNF-alpha 2 hours post challenge.
Methods: Mice (CD1 strain; adult males; 6 per group) were treated with BSCI (in an appropriate vehicle) or with vehicle alone by an appropriate route. […] Simultaneously, one set of mice at each BSCI concentration received BIM 23627 at 4 mg/animal (120 mg/kg) by sub-cutaneous injection (a treatment condition known to suppress classical sstr2-mediated signalling, such as GH release, in rats; Tulipano et al. (2002) 143:1218-24). Between 30 mins and 1 hour after dosing (a period when a maximal plasma concentration of BSCI has been achieved), the inflammatory challenge was elicited by intraperitoneal injection of 750 μg of LPS (Sigma; L4130 lot#024K4077; 900,000 EU/mg).
After a further 2 hours, the animals were sacrificed by CO2 asphyxiation, and blood was drawn by cardiac puncture. Serum was prepared by conventional methods, and the level of TNF-alpha in serum was measured using an ELISA (R&D Systems; Murine Quantikine code# MTA00) performed in accordance with the manufacturer's instructions.

THP-1 cells = assay: MCP-1 induced THP-1 cell migration (Transwell/ChemoTx)
Protocol: Leukocyte migration was measured using the 96-well format micro Transwell® assay system from Neuroprobe (Gaithersburg, Md., USA). In principle, this assay consists of two chambers separated by a porous membrane. The chemoattractant is placed in the lower compartment and the cells are placed in the upper compartment.
First, the cell suspension to be placed in the upper compartment was prepared. The THP-1 cells were pelleted by centrifugation (770×g; 4 mins) and washed with Geys Balanced Salt Solution with 1 mg/ml BSA (GBSS+BSA). This wash was then repeated, and the cells re-pelleted before being resuspended in a small volume of GBSS+BSA for counting, for example using a standard haemocytometer.
This ensured that there were 100,000 THP-1 cells in each 25 μl of the solution to be placed in the upper chamber of the plate.
To the third pot, GBSS+BSA plus vehicle as appropriate was added so that the volumes in three pots are equal, acting as a control.
Next, the chemoattractant solution to be placed in the lower compartment was prepared. […] This solution was divided into three pots, as for the cell suspension. To one pot, the BSCI was added to the same final concentration as was added to the cell suspension, in the second pot the BSCI and the sstr2 antagonist were both added at the same concentration as previously added to the cell suspension, while to the remaining pot GBSS+BSA plus vehicle as appropriate was added so that the volumes in the three pots were equal.
Once the chemoattractant solutions for the lower wells and cell solutions for the upper chambers were prepared, the migration chamber was assembled. 29 μl of the appropriate chemoattractant solution was placed into the lower well of the chamber. Assays were performed with at least triplicate determinations of each condition. Once all the lower chambers were filled, the porous membrane was applied to the chamber in accordance with the manufacturer's instructions. Finally, 25 μl of the appropriate cell solution was applied to each upper chamber. A plastic lid was placed over the entire apparatus to prevent evaporation.
The assembled chamber was incubated at 37° C., 5% CO2, for 2 hours.
At the end of the incubation, the liquid cell suspension was gently removed from the upper chamber, 20 μl of ice-cold 20 mM EDTA in PBS was added to the upper chamber, and the apparatus was incubated at 4° C. for 15 mins. This procedure caused any cells adhering to the underside of the membrane to fall into the lower chamber.
After this incubation the filter was carefully flushed with GBSS+BSA to wash off the EDTA, and then the filter was removed.
The number of cells migrated into the lower chamber under each condition can then be determined by a number of methods, including direct counting, labelling with fluorescent or radioactive markers or through the use of a vital dye. Typically, we utilised the vital dye MTT. 3 μl of stock MTT solution were added to each well, and then the plate was incubated at 37° C. for 1-2 hours during which time dehydrogenase enzymes within the cells converted the soluble MTT to an insoluble blue formazan product that could be quantified spectrophotometrically.
In parallel, an 8-point standard curve was set up. Starting with the number of cells added to each upper chamber (100,000) and going down in 2-fold serial dilutions in GBSS+BSA, the cells were added to a plate in 25 with 3 μl of MTT stock solution added. The standard curve plate was incubated along side the migration plate. At the end of this incubation, the liquid was carefully removed from the lower chambers, taking care not to disturb the precipitated formazan product.
The MCP-1 stimulated migration was determined by subtracting the average number of cells that reached the lower compartment in wells where no MCP-1 was added from the average number of cells that reached the lower compartment where MCP-1 was present at 25 ng/ml.

| SMILES | Rat pituicyte GH suppression assay Max effect (fetal rat pituicytes) | EC50 (Panc-2H4 cells; Table 3, read-out: Human Panc-2H4 insulin suppression assay ED50) | Human Panc-2H4 insulin suppression assay Max effect (Panc-2H4 cells; Table 3, suppression compared to vehicle) | inhibition of insulin secretion by Panc-2H4 (Panc-2H4 cells; highest concentrations tested) | “Classical”:“BSCI” potency ratio, Rat ([1]; PBMC migration ED50 versus pituicyte GH ED50) | Rat chemokine-induced PBMC migration assay Max effect ([1]; Table 3) | sensitivity of Jurkat-D3B migration (Jurkat-D3B cells) | inhibition of LPS-induced systemic inflammation (TNF-alpha; dose-dependent, BN83250 s.c., valerolactam oral gavage) | potency relative to BN83253 (THP-1 cells; MCP-1 induced THP-1 migration, FIG. 5 versus FIG. 4) | “Classical”:“BSCI” potency ratio, Human (THP-1 cells; THP-1 migration ED50 versus Panc-2H4 insulin ED50) | Human chemokine-induced THP-1 migration assay Max effect (THP-1 cells; Table 3) | inhibition of serum TNF-alpha (TNF-alpha; very high / highest doses, 2 hours post LPS) |
| --- | --- | --- | --- | --- | --- | --- | --- | --- | --- | --- | --- | --- |
| CC(C)(C)C(=O)N[C@H]1CCCNC1=O [Valerolactam, (S)-3-(2′2′-dimethylpropionoylamino)-tetrahydropyridin-2-one] | 61% | > 1 µM | <10% | None of these agents inhibited insulin secretion | 0.0009 | 100% | sensitive to inhibition | dramatically inhibited | 20-50 fold | <0.00005 | 100% |  |
| C[C@@H]1C[C@H]2[C@@H]3CCC4=CC(=O)C=C[C@]4(C)[C@@]3(F)[C@@H](O)C[C@]2(C)[C@@]1(O)C(=O)CO [dexamethasone] |  |  |  |  |  |  |  |  |  |  |  | more than 90% |
